Read-outs that look alike come from different tables or passages of the source.
Columns and labels:
[1] = molecular target: T1, TbrCatL (Trypanosoma brucei rhodesiense, UniProt Q95PM0); assay: TbrCatL enzymatic inhibition assay (cleavage of fluorogenic substrate Z-FR-AMC); assay type: biochemical; conditions: for TbrCatL 0’ Inhibition / TbrCatL 10’ Inhibition: sheet "Screening results"
T1 construct: Conor Caffrey (University of California San Diego)
Outline: (§1)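 Recombinant enzymes assayed by Z-Phe-Arg-AMC cleavage at 25 °C, fluorescence 340/440 nm over 5–7 min, with 10 min or no enzyme–compound preincubation.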

[2] = molecular target: cruzain (Trypanosoma cruzi, UniProt P25779); assay: biochemical
Outline: as §1

[3] = 0’ (pre-incubation time), sheet "Screening results"
[4] = 10’ (pre-incubation time), sheet "Screening results"
[5] = 0’ (no pre-incubation), sheet Screening results
[6] = 10’ (pre-incubation), sheet Screening results
[7] = 0’ (pre-incubation time), Pathogen Box screening results
[8] = 10’ (pre-incubation time), Pathogen Box screening results
[9] = 5 µM, PB library solutions, 10 min pre-incubation, vs DMSO control

T1 sequence (Q95PM0 entry or part of it): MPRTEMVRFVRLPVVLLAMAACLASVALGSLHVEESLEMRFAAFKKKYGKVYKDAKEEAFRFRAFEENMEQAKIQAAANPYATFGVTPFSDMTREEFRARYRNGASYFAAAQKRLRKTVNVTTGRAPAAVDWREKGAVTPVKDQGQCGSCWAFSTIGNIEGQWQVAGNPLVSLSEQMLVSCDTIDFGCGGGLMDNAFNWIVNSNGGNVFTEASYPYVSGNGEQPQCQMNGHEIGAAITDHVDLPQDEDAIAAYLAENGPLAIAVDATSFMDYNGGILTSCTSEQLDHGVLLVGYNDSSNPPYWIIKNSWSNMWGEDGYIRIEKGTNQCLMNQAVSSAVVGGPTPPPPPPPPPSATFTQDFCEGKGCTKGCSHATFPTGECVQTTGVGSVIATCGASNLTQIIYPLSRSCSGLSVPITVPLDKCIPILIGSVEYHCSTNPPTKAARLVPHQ
Chain of cruzain (P25779 123-337 limits assumed): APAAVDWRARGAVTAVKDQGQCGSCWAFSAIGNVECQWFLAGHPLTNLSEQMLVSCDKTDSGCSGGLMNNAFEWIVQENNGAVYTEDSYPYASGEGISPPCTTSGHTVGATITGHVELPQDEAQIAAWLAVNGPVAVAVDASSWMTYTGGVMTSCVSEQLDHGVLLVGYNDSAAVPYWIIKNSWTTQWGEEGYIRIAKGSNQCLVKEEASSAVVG

Structure (SMILES)	TbrCatL 0’ Inhibition ([1]; 0’ (pre-incubation time)) [%]	TbrCatL 10’ Inhibition ([1]; 10’ (pre-incubation time)) [%]	Cruzain 0’ Inhibition [2, 3] [%]	Cruzain 10’ Inhibition [2, 4] [%]	TbrCatL Inhibition 0’ [1, 5] [%]	TbrCatL Inhibition 10’ [1, 6] [%]	Cruzain Inhibition 0’ [2, 5] [%]	Cruzain Inhibition 10’ [2, 6] [%]	other results
N#Cc1ccc(-c2cnc(N)c(-c3ccc(C(N)=O)cc3)n2)cc1 [MMV085499]	–	–	–	–	–	–	–	–	inhibition at 5 µM ([1]; read-out: Inhibition at 5 µM (Mean ± SEM %) TbrCatL 0′): 12 ± 8%; inhibition at 5 µM ([1]; read-out: Inhibition at 5 µM (Mean ± SEM %) TbrCatL 10′ inc): 46 ± 5%; inhibition at 100 µM ([1]; read-out: Inhibition at 100 µM (Mean ± SEM %) TbrCatL 0′): 26 ± 18%; inhibition at 100 µM ([1]; read-out: Inhibition at 100 µM (Mean ± SEM %) TbrCatL 10′ inc): 0%; inhibition at 5 µM ([1]; read-out: TbrCatL 0’ Inhibition): 9%; inhibition at 5 µM ([1]; read-out: TbrCatL 10’ Inhibition): 46%; inhibition at 5 µM ([2]; read-out: Cruzain 0’ Inhibition, 0’ (pre-incubation time), sheet "Screening results"): 0.5%; inhibition at 5 µM ([2]; read-out: Cruzain 10’ Inhibition, 10’ (pre-incubation time), sheet "Screening results"): 25%; inhibition at 5 µM ([2]; read-out: Inhibition at 5 µM (Mean ± SEM %) Cruzain 0′, 5 µM, no pre-incubation, initial screening): 2 ± 3%; inhibition at 5 µM ([2]; read-out: Inhibition at 5 µM (Mean ± SEM %) Cruzain 10′ inc, 5 µM, 10′ pre-incubation, initial screening): 25 ± 4%; inhibition at 100 µM ([2]; read-out: Inhibition at 100 µM (Mean ± SEM %) Cruzain 0′, 100 µM, no pre-incubation, solid samples): 0%; inhibition at 100 µM ([2]; read-out: Inhibition at 100 µM (Mean ± SEM %) Cruzain 10′ inc, 100 µM, 10′ pre-incubation, solid samples): 0%; inhibition at 5 µM ([2]; read-out: Inhibition of cruzain or TbrCatL (either enzyme) in the initial screening, 5 µM, either cruzain or TbrCatL, with or without pre-incubation): ≥ 40%
COc1ccc(-c2onc(C(F)(F)F)c2-c2ccc(Cl)cc2)c(O)c1 [MMV688766]	0	-5	1	-2.5	–	–	–	–	–
COc1cccc(-n2nnnc2S(=O)(=O)Cc2ccccc2)c1 [MMV676388]	–	–	–	–	18	15	15	12	–
CC(C)(C)n1nc(Cc2cccc3ccccc23)c2c(N)ncnc21 [MMV676599]	4.6	-5	9	11	–	–	–	–	–
O=C(Nc1c(O)cccc1-c1nc2c(C(=O)O)cccc2o1)c1cc(-c2ccccc2)on1 [MMV676008]	2.6	-3.7	-3.3	8	–	–	–	–	–
CC(C)(C)n1nc(Cc2ccc(F)c(Cl)c2)c2c(N)ncnc21 [MMV688852]	–	–	–	–	-2.7	-13	6	0.5	–
COc1cc2ncnc(NC3CCN(Cc4ccccc4)CC3)c2cc1OC [MMV006741]	–	–	–	–	15	5.4	8	10	–
CS(=O)(=O)c1ccc(C(=O)N(CC2CCCO2)c2nc3ccccc3s2)cc1[N+](=O)[O-] (stereo not shown) [MMV688761]	–	–	–	–	-0.9	1.2	-0.3	5.7	–
Cc1nn(C)cc1C(C)Nc1nncc(-c2ccc(C(F)(F)F)cc2)n1 (stereo not shown) [MMV019993]	0.6	-3.6	-5	-1.8	–	–	–	–	–
O=C(NCCc1ccn(-c2ccccc2)n1)C1CCCCC1 [MMV688795]	5	5.4	3.2	4	–	–	–	–	–
C[C@H]1CS(=O)(=O)CCN1/N=C/c1ccc([N+](=O)[O-])o1 [MMV001499]	5	11	7	7.5	–	–	–	–	–
Cc1nc(-c2ccccn2)nc(NCCc2ccc(S(C)(=O)=O)cc2)c1Cl [MMV658993]	-11	-12	-6.4	9	–	–	–	–	–
CC1COC(Cn2cncn2)(c2ccc(Oc3ccc(Cl)cc3)cc2Cl)O1 (stereo not shown) [MMV688943]	–	–	–	–	15	4	13	10	–
CCN(CC)CCCN1CCN(C(=O)c2cccc(-c3noc(C(F)(F)F)n3)c2)CC1 [MMV022236]	7.4	16	7	16	–	–	–	–	–
COc1ccc(S(=O)(=O)Nc2ccc(CN3CCN(C(=O)c4cccc(C#N)c4)CC3)cc2)cc1 [MMV689029]	0.7	1.2	2.5	5.4	–	–	–	–	–
Brc1c(-c2ccc3c(c2)OCO3)nc2ncccn12 [MMV676377]	–	–	–	–	5	-1.8	1.2	-0.9	–
O=C(NCc1ccoc1)N1CCN(Cc2ccc3c(c2)OCO3)CC1 [MMV688553]	–	–	–	–	-1.2	-6.4	-7	0.9	–
O=C(N[C@H](Cc1ccccc1)C(=O)Nc1ccccc1N1CCOCC1)c1cccs1 [MMV688845]	-0.3	2.3	1	4.5	–	–	–	–	–

Structure (SMILES)	TbrCatL 0’ Inhibition ([1]; 0’ (pre-incubation time)) [%]	TbrCatL 10’ Inhibition ([1]; 10’ (pre-incubation time)) [%]	Cruzain 0’ Inhibition [2, 3] [%]	Cruzain 10’ Inhibition [2, 4] [%]	TbrCatL Inhibition 0’ [1, 5] [%]	TbrCatL Inhibition 10’ [1, 6] [%]	Cruzain Inhibition 0’ [2, 5] [%]	Cruzain Inhibition 10’ [2, 6] [%]	other results
Nc1ncnc2c1c(Cc1cccc3ccccc13)nn2CC1CCNCC1 [MMV676182]	1.4	3.4	-4.4	4.5	–	–	–	–	–
CC(C)(C(=O)Nc1ccc(F)cc1)n1cc(-c2ccccc2F)cn1 [MMV687239]	–	–	–	–	1.1	-6	7	-3	–
Nc1nccc2ccc(-c3ccc4nccn4c3)cc12 [MMV023233]	0.7	7	11	8	–	–	–	–	–
CCCCCCCCCCCCCCCCOP(=O)([O-])OCC[N+](C)(C)C [MMV688990]	–	–	–	–	–	–	–	–	TbrCatL Inhibition 0’ [1, 7]: -2.4%; TbrCatL Inhibition 10’ [1, 8]: -12%; Cruzain Inhibition 0’ [2, 7]: -0.1%; Cruzain Inhibition 10’ [2, 8]: 0.6%
CN1CCN(S(=O)(=O)c2ccc(-c3ccc4c(Nc5ncc(Cl)cn5)ccnc4c3)cc2)CC1 [MMV688283]	–	–	–	–	24	18	30	31	–
CC(C)C(Oc1cccc2ccccc12)C(=O)O (stereo not shown) [MMV676191]	-3	2	2.8	1.5	–	–	–	–	–
COc1ccc(-c2cnc3cnc(-c4cccc(OC(C)C)c4)cn23)cc1 [MMV688270]	-8	-8	-4	5	–	–	–	–	–
O=C1N(Cc2cc3ccccc3s2)CC2CN(Cc3ccccc3)CCN12 (stereo not shown) [MMV084603]	–	–	–	–	18	4.6	7.6	6.4	–
CC(C(=O)N1CCCC1)N1CCN(S(=O)(=O)c2ccc(C(C)(C)C)cc2)CC1 (stereo not shown) [MMV020291]	4.3	8	2.5	6	–	–	–	–	–
CC(C)=CCC/C(C)=C\CNCCNC1C2CC3CC(C2)CC1C3 (stereo not shown) [MMV687273]	-3.2	-4.3	-1.6	2.8	–	–	–	–	–
O=C(COc1cccc(F)c1)Nc1nc(-c2ccccn2)cs1 [MMV676409]	–	–	–	–	-77	–	-227	–	Increase in the initial velocity of the reaction (%) 5 µM using PB samples TbrCatL [1, 9]: 772 ± 382%; Increase in initial velocity of substrate cleavage in comparison to the DMSO control ([1]; TbrCatL 10′ inc, screening at 5 µM): up to 8 fold; Increase in the initial velocity of the reaction (%) 5 µM using PB samples Cruzain [2, 9]: 510 ± 216%; Increase in the initial velocity of the reaction (%) 5 µM using solid samples Cruzain ([2]; 5 µM, solid samples, 10 min pre-incubation, vs DMSO control): -4 ± 2%; Increase in the initial velocity of the reaction (%) 100 µM using solid samples Cruzain ([2]; 100 µM, solid samples, 10 min pre-incubation, vs DMSO control): 0 ± 6%; Increase in the enzyme velocity in confirmatory assays ([2]; solid samples, varying compound concentrations): no increase in the enzyme velocity
CNc1snc(C)c1C(=O)NCCOc1ccc(OC)cc1 [MMV688554]	–	–	–	–	-7	-8	-8	-4.6	–
CC(C)C(NC(=O)Cc1cccc2ccccc12)C(=O)Nc1cccc(C#N)c1 (stereo not shown) [MMV020591]	–	–	–	–	-8	-3.7	-1.7	-0.4	–
COc1nc2ccc(Br)cc2cc1[C@@H](c1ccccc1)[C@@](O)(CCN(C)C)c1cccc2ccccc12 [MMV689758]	–	–	–	–	9	-1.4	19	10	–
O=C(Nc1cccc(-c2ccc(NCCCN3CCCC3)nc2)c1)c1ccccc1 [MMV023953]	12	7	8	11	–	–	–	–	–
CC(=O)N(CCN(C(=O)c1ccc(F)cc1)c1ccccc1)c1ccccc1 [MMV676064]	-5	-7	-6	3	–	–	–	–	–
COc1ccc(-c2cnc3ccc(NCc4ccc(S(N)(=O)=O)cc4)nn23)cn1 [MMV010545]	-3.2	7	0.8	3.6	–	–	–	–	–
Cc1cc(C)n2nc(C(=O)Nc3cc(C(F)(F)F)ccc3N3CCOCC3)nc2n1 [MMV019087]	–	–	–	–	4.3	3	1.6	2.6	–
